This assay addresses HPK1 (Homo sapiens, UniProt Q92918). Kind of assay: SLP76 phosphorylation assay (intracellular HPK1 inhibitory activity, p-SLP76 S376 ELISA in Jurkat cells). The settings on record: p-SLP76 IC50, Jurkat, Clone E6-1 cells; 1 h compound pre-incubation; anti-CD3 beads stimulation 20 min; Phospho-SLP-76 (Ser376) ELISA. On the technique in general: In an ELISA, binding on a coated surface is turned into a signal by an enzyme label.
Chain of HPK1 (Q92918 whole entry): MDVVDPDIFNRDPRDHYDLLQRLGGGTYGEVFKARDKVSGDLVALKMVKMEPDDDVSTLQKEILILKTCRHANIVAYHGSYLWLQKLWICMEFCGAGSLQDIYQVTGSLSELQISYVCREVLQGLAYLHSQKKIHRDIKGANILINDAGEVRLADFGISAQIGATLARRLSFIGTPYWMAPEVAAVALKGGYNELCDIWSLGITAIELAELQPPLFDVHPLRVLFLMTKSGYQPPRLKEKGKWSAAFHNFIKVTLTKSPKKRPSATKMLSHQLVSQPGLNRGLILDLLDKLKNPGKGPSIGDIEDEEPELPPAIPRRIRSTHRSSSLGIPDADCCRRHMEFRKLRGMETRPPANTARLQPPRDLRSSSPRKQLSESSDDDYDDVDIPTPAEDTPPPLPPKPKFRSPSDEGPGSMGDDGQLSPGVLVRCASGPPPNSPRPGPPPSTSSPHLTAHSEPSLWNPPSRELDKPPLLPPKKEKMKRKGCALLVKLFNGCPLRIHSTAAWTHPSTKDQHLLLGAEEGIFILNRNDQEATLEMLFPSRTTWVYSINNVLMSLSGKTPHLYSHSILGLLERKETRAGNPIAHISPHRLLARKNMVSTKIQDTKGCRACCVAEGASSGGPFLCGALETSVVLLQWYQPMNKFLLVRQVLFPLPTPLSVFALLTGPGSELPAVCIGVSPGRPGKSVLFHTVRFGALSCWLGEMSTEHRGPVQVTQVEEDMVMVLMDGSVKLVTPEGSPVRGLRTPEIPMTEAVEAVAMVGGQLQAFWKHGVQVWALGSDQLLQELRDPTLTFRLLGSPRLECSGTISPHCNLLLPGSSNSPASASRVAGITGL
The IC50 is the concentration that inhibits the measured activity by half. A higher IC50 goes with a need for much substance. As for `O=C(N1CCc2cc(-c3cnc4[nH]cc(Cl)c4c3)cc([C@@H]3COCCN3)c2C1)C1(O)CCOCC1` [Compound Z485, (R)-(6-(3-chloro-1H-pyrrolo[2,3-b]pyridin-5-yl)-8-(morpholin-3-yl)-3,4-dihydroisoquinolin-2(1H)-yl)(4-hydroxytetrahydro-2H-pyran-4-yl)methanone], the IC50 was determined as 126 nM.
In the case of `Cc1c[nH]c2ncc(-c3cc4c(c([C@@H]5COCCN5)c3)CN(C(=O)N3CC[C@@H](F)C3)CC4)cc12` [Compound Z486, ((R)-3-fluoropyrrolidin-1-yl)(6-(3-methyl-1H-pyrrolo[2,3-b]pyridin-5-yl)-8-((R)-morpholin-3-yl)-3,4-dihydroisoquinolin-2(1H)-yl)methanone] it was 153 nM; in that of `O=C(C1CCOCC1)N1CCc2c(cc(-c3cnc4[nH]cc(Cl)c4c3)cc2[C@@H]2COCCN2)C1` [Compound Z487, (R)-(7-(3-chloro-1H-pyrrolo[2,3-b]pyridin-5-yl)-5-(morpholin-3-yl)-3,4-dihydroisoquinolin-2(1H)-yl)(tetrahydro-2H-pyran-4-yl)methanone], 153 nM; in that of `Cc1c[nH]c2ncc(-c3cc4c(c([C@@H]5COCCN5)c3)CN(C3CCN(C)CC3)CC4)cc12` [Compound Z498, (R)-3-(6-(3-methyl-1H-pyrrolo[2,3-b]pyridin-5-yl)-2-(1-methylpiperidin-4-yl)-1,2,3,4-tetrahydroisoquinolin-8-yl)morpholine], 195 nM.
In turn, `O=S(=O)(C1CC1)N1CCc2cc(-c3cnc4[nH]cc(Cl)c4c3)cc([C@@H]3COCCN3)c2C1` [Compound Z499, (R)-3-(6-(3-chloro-1H-pyrrolo[2,3-b]pyridin-5-yl)-2-(cyclopropylsulfonyl)-1,2,3,4-tetrahydroisoquinolin-8-yl)morpholine] gave an IC50 of 219 nM.
`C[C@@H]1COCCN1C(=O)N1CCc2cc(-c3cnc4[nH]cc(Cl)c4c3)cc([C@@H]3COCCN3)c2C1` [Compound Z500, (6-(3-chloro-1H-pyrrolo[2,3-b]pyridin-5-yl)-8-((R)-morpholin-3-yl)-3,4-dihydroisoquinolin-2(1H)-yl)((R)-3-methylmorpholine)methanone] displayed an IC50 of 143 nM.
In the case of `CS(=O)(=O)N1CCc2cc(-c3cnc4[nH]cc(Cl)c4c3)cc([C@@H]3COCCN3)c2C1` [Compound Z501, (R)-3-(6-(3-chloro-1H-pyrrolo[2,3-b]pyridin-5-yl)-2-(methylsulfonyl)-1,2,3,4-tetrahydroisoquinolin-8-yl)morpholine] it was 285 nM.
In the case of `C[C@@H]1CN(C(=O)N2CCc3cc(-c4cnc5[nH]cc(Cl)c5c4)cc([C@@H]4COCCN4)c3C2)CCO1` [Compound Z502, (6-(3-chloro-1H-pyrrolo[2,3-b]pyridin-5-yl)-8-((R)-morpholin-3-yl)-3,4-dihydroisoquinolin-2(1H)-yl)((R)-2-methylmorpholino)methanone] it was 169 nM; in that of `CC1(C)COCCN1C(=O)N1CCc2cc(-c3cnc4[nH]cc(Cl)c4c3)cc([C@@H]3COCCN3)c2C1` [Compound Z503, (R)-(6-(3-chloro-1H-pyrrolo[2,3-b]pyridin-5-yl)-8-(morpholin-3-yl)-3,4-dihydroisoquinolin-2(1H)-yl)(3,3-dimethylmorpholino)methanone], 168 nM.
To `Cc1c[nH]c2ncc(-c3cc4c(c([C@@H]5COCCN5)c3)CN(C(=O)C3CC5CCC(C3)O5)CC4)cc12` (stereo partly drawn) [Compound Z504, (8-oxabicyclo[3.2.1]octan-3-yl)(6-(3-methyl-1H-pyrrolo[2,3-b]pyridin-5-yl)-8[(R)-morpholin-3-yl)-3,4-dihydroisoquinolin-2(1H)-yl)-methanone] belongs 232 nM.
In the case of `Cc1c[nH]c2ncc(-c3cc4c(c([C@@H]5COCCN5)c3)CN(C(=O)C3(C)COC3)CC4)cc12` [Compound Z505, (R)-(6-(3-methyl-1H-pyrrolo[2,3-b]pyridin-5-yl)-8-(morpholin-3-yl)-3,4-dihydroisoquinolin-2(1H)-yl)(3-methyloxetan-3-yl)methanone], the midpoint of inhibition, the IC50, lay at 263 nM.
Take `CC(C)(O)C(=O)N1CCc2cc(-c3cnc4[nH]cc(C#N)c4c3)cc([C@@H]3COCCN3)c2C1` [Compound Z506, (R)-5-(2-(2-hydroxy-2-methylpropanoyl)-8-(morpholin-3-yl)-1,2,3,4-tetrahydroisoquinolin-6-yl)-1H-pyrrolo[2,3-b]pyridine-3-carbonitrile]: the IC50 came to 685 nM.
In turn, `C=Cc1c[nH]c2ncc(-c3cc4c(c([C@@H]5COCCN5)c3)CN(C(=O)C(C)(C)O)CC4)cc12` [Compound Z508, (R)-2-hydroxy-2-methyl-1-(8-(morpholin-3-yl)-6-(3-vinyl-1H-pyrrolo[2,3-b]pyridin-5-yl)-3,4-dihydroisoquinolin-2(1H)-yl)propan-1-one] registered a concentration for half-maximal inhibition (IC50) of 304 nM.
In the case of `Cc1c(F)[nH]c2ncc(-c3cc4c(c([C@@H]5COCCN5)c3)CN(C(=O)C(C)(C)O)CC4)cc12` [Compound Z510, (R)-1-(6-(2-fluoro-3-methyl-1H-pyrrolo[2,3-b]pyridin-5-yl)-8-(morpholin-3-yl)-3,4-tetrahydroisoquinolin-2(1H)-yl)-2-hydroxy-2-methylpropan-1-one], the IC50 came out at 283 nM.
In turn, `CCc1c(Cl)[nH]c2ncc(-c3cc4c(c([C@@H]5COCCN5)c3)CN(C(=O)N3CC5CCC(C3)O5)CC4)cc12` [Compound Z514, (8-oxo-3-azabicyclo[3.2.1]octane-3-yl)(6-(2-chloro-3-ethyl-1H-pyrrolo[2,3-b]pyridin-5-yl)-8-((R)-morpholin-3-yl)-3,4-dihydroisoquinolin-2(1H)-yl)methanone] yielded an IC50 of 134 nM.
To `N#Cc1c[nH]c2ncc(-c3cc4c(c([C@@H]5COCCN5)c3)CN(C(=O)N3CC5CCC(C3)O5)CC4)cc12` [Compound Z515, 5-(2-(8-oxa-3-azabicyclo[3.2.1]octane-3-carbonyl)-8-((R)-morpholin-3-yl)-1,2,3,4-tetrahydroisoquinolin-6-yl)-1H-pyrrolo[2,3-b]pyridine-3-carbonitrile] belongs 173 nM; to `Cc1c[nH]c2ncc(-c3cc4c(c([C@@H]5COCCN5)c3)CN(C(=O)N3CC5CC(C3)O5)CC4)cc12` [Compound Z516, (6-oxa-3-azabicyclo[3.1.1]heptan-3-yl)-(6-(3-methyl-1H-pyrrolo[2,3-b]pyridin-5-yl)-8((R)-morpholin-3-yl)-3,4-dihydroisoquinolin-2(1H)-yl)methanone], 161 nM; to `Cc1c[nH]c2ncc(-c3cc4c(c([C@@H]5COCCN5)c3)CN(C(=O)N3C[C@@H](C)O[C@@H](C)C3)CC4)cc12` [Compound Z519, ((2R,6S)-2,6-dimethylmorpholine)(6-(3-methyl-1H-pyrrolo[2,3-b]pyridin-5-yl)-8-((R)-morpholin-3-yl)-3,4-dihydroisoquinolin-2-1H-yl)methanone], 197 nM.
The compound `O=C(N1CCc2cc(-c3cnc4[nH]cc(F)c4n3)cc([C@@H]3COCCN3)c2C1)N1CC2CCC(C1)O2` [Compound Z522, (8-oxa-3-azabicyclo[3.2.1]octan-3-yl)(6-(7-fluoro-5H-pyrrolo[2,3-b]pyrazin-2-yl)-8-((R)-morpholin-3-yl)-3,4-dihydroisoquinolin-2(1H)-yl)methanone] registered an IC50 of 110 nM.

Source of the values: patent US20250084078A1, “FUSED RING-SUBSTITUTED SIX-MEMBERED HETEROCYCLIC COMPOUND, AND PREPARATION METHOD THEREFOR AND USE THEREOF” (GENFLEFT THERAPEUTICS (SHANGHAI) INC., priority 2022, published 2025).
